In patent US11945787B2, “Substituted imidazoles for preventing and/or treating cell or tissue necrosis” (Ela Pharma Ltd, priority 2015, dated 2024):

Tested on: PC12 cells
Assay: KCN-induced necrosis of PC12 cells, LDH release
Format: cell-based, rat
Conditions: for inhibition at 0.0001 µM / inhibition at 0.001 µM / inhibition at 0.01 µM / inhibition at 0.1 µM / inhibition at 1 µM: Rattus norvegicus, PC-12, 5 h, KCN, PC12, LDH release (Table 5); for inhibition at 0.0001 µM / % protection at indicated concentration 0.1 nM: 0.1 nM; for inhibition at 0.0001 µM: read-out: % protection at 0.1 nM; for inhibition at 0.001 µM / % protection at indicated concentration 1 nM: 1 nM; for inhibition at 0.001 µM: read-out: % protection at 1 nM; for inhibition at 0.01 µM / % protection at indicated concentration 10 nM: 10 nM; for inhibition at 0.01 µM: read-out: % protection At 10 nM; for inhibition at 0.1 µM: read-out: % protection at 0.1 μM; for inhibition at 1 µM: read-out: % protection at 1 μM; for % protection at indicated concentration 0.1 nM / % protection at indicated concentration 1 nM / % protection at indicated concentration 10 nM / % protection at indicated concentration 100 nM / % protection at indicated concentration 1 μM / protection of cells at 10 μM: KCN-induced necrosis (Table 2)
Method: The rat pheochromocytoma PC12 cell line was propagated in DMEM medium (Beit Haemek, Israel), supplemented with 5% heat-inactivated calf serum, 10% heat-inactivated horse serum, 2 mM L-glutamine, 100 U/ml penicillin and 100 μg/ml streptomycin. PC12 cells in logarithmic phase were seeded at a concentration of 1.2×10^5/well in 96-well plates and incubated overnight.
Thereafter, the cells were washed twice and maintained in RPMI-1640 (U-937cells) and DMEM (PC-12 cells) glucose-free medium, supplemented with 2 mM pyruvate and 10% dialyzed FCS for one hour. Then cells were treated with or without KCN (Merck, Germany) at the indicated concentrations for 7 hours (U-937 cells), or for 5 hours (PC12 cells).
Elastase inhibitors II (MeOSuc-AAPA-CMK) and elastase inhibitor III (MeOSuc-AAPV-CMK) were purchased from Calbiochem-Novabiochem, USA. Compound Gly-Phe diazomethylketone was purchased from MP Biomedicals, USA. All the compounds disclosed in Table 1 hereinabove were purchased from ChemDiv, San Diego, CA. The compounds were dissolved in DMSO and were administered 30 min before addition of the cell death inducer. The final concentration of DMSO, added to all samples, was 0.1%, which had no effect by itself siRNA and cell transfection
The amount of LDH released from lysed cells is a sensitive measure of cell death. Necrotic cell death was measured in 96-well plates using Promega CytoTox 96 LDH assay kit. LDH content from the cells lysed in 0.1% Triton X-100 for 10 min was used as an index of total LDH. The LDH released in culture medium was used as an index of necrotic cell death and the percentage from total LDH was calculated. The protection by the inhibitor was calculated based on comparing percentage of LDH release in the presence and in the absence of the inhibitor. The inhibitors were also added to totals, blanks and controls. Absorbance at 490 nm was measured by ELISA reader (BioTec).
These compounds were tested for their ability to inhibit necrosis induced by KCN in PC12 cells. The necrotic mode of cell death in this system was validated as previously described. PC12 cells were challenged with KCN as described above. The protective results of the compounds against KCN-induced necrosis assessed using LDH release method are shown below in Table 5. The IC50 values of these inhibitors is in the range of tens to single nanomolar.

Compound	inhibition at 0.0001 µM	inhibition at 0.001 µM	inhibition at 0.01 µM	inhibition at 0.1 µM	inhibition at 1 µM	other results
CCN1CCN(c2c(C)c(C)nc3ncnn23)CC1 [Z606-8336, 7-(4-ethylpiperazin-1-yl)-5,6-dimethyl-[1,2,4]triazolo[1,5-a]pyrimidine]	29%	35%	54%	64%	75%	–
O=C(NCCNC(=O)c1nc(Cn2cc(Cl)cn2)no1)c1cccc(F)c1 [8019-5381, 3-((4-chloro-1H-pyrazol-1-yl)methyl)-N-(2-(3-fluorobenzamido)ethyl)-1,2,4-oxadiazole-5-carboxamide]	–	–	32%	49%	56%	–
Cn1c(=O)[nH]c(=O)c2[nH]c(N3CCCCC3)nc21 [D226-0031, 3-methyl-8-(piperidin-1-yl)-1H-purine-2,6(3H,7H)-dione]	29%	26%	43%	37%	65%	–
CNC(=O)c1n[nH]c2c1CCCCCC2 [Z632-6109, N-methyl-4,5,6,7,8,9-hexahydro-1H-cycloocta[c]pyrazole-3-carboxamide]	26%	25%	40%	70%	81%	–
O=C(O)c1nc2ncccn2n1 [R052-2664, [1,2,4]triazolo[1,5-a]pyrimidine-2-carboxylic acid]	–	–	21%	49%	50%	–
CC(=O)Oc1ccc2nc(-c3cccc(Br)c3)oc(=O)c2c1 [4334-1600, 2-(3-bromophenyl)-4-oxo-4H-benzo[d][1,3]oxazin-6-yl acetate]	28%	30%	28%	71%	74%	% protection at indicated concentration 0.1 nM: 28%; % protection at indicated concentration 1 nM: 30%; % protection at indicated concentration 10 nM: 28%; % protection at indicated concentration 100 nM: 70%; % protection at indicated concentration 1 μM: 74%
O=C(c1ccco1)N1CCN=C1N1CCCC1 [M059-0032, furan-2-yl(2-(pyrrolidin-1-yl)-4,5-dihydro-1H-imidazol-1-yl)methanone]	7%	25%	37%	59%	72%	–
O=C(c1ccccc1Cl)N1CCN=C1N1CCCCC1 [M059-0326, (2-chlorophenyl)-[2-(1-piperidyl)-4,5-dihydroimidazol-1-yl] methanone]	–	–	–	–	–	protection of cells at 10 μM: 10 μM confers protection 56% of cells
O=C(c1ccccc1F)N1CCN=C1N1CCCCC1 [M059-0216, (2-fluorophenyl)-[2-(1-piperidyl)-4,5-dihydroimidazol-1-yl] methanone]	–	–	–	–	–	protection of cells at 10 μM: 10 μM confers protection 71% of cells
CCC(CC)C(=O)N1CCN=C1N1CCCC1 [M059-0053, 2-ethyl-1-(2-(pyrrolidin-1-yl)-4,5-dihydro-1H-imidazol-1-yl)butan-1-one]	–	–	–	–	39%	–
CC(C)C[C@H](NC(=O)N[C@H](C(=O)N[C@@H](CCC(N)=O)C(=O)N[C@@H](C)C=O)[C@@H]1CCNC(=N)N1)C(=O)O [elastatinal, reference compound]	–	–	–	–	–	KCN-induced necrotic cell death assessed by LDH release (PC12, KCN 5 hours, FIGS. 6, 7A-B): no protective effect
O=C(CN1C(=O)C2CCCN2C(=O)c2ccc(F)cc21)Nc1ccc(F)c(F)c1 (stereo not drawn) [M284-0942, N-(3,4-difluorophenyl)-2-(8-fluoro-5,11-dioxo-2,3,11,11a-tetrahydro-1H-benzo[e]pyrrolo[1,2-a][1,4]diazepin-10(5H)-yl)acetamide]	–	–	–	52%	–	–
Cn1c(-c2c(C(C)(C)C)oc3cc(OC(=O)C(C)(C)C)ccc3c2=O)nc2ccccc21 [4356-0595, 2-(tert-butyl)-3-(1-methyl-1H-benzo[d]imidazol-2-yl)-4-oxo-4H-chromen-7-yl pivalate]	4%	21%	36%	57%	69%	–
COc1cc(C(=O)n2nc(C)cc2C)cc(OC)c1OC [3346-3249, (3,5-dimethyl-1H-pyrazol-1-yl)(3,4,5-trimethoxyphenyl)methanone]	–	–	–	–	52%	–
c1ccc(-c2noc(CC3CCCCC3)n2)nc1 [4953-1443, 5-(cyclohexylmethyl)-3-(pyridin-2-yl)-1,2,4-oxadiazole]	–	–	–	–	51%	–
Nc1ncc(S(=O)(=O)Nc2ccc(F)cc2F)cn1 [G830-0845, 2-amino-N-(2,4-difluorophenyl)pyrimidine-5-sulfonamide]	–	–	–	–	54%	–
O=C(C1CCCC1)N1CCN=C1N1CCCC1 [M059-0082, cyclopentyl(2-(pyrrolidin-1-yl)-4,5-dihydro-1H-imidazol-1-yl)methanone]	–	–	–	–	–	% protection at indicated concentration 0.1 nM: 33%; % protection at indicated concentration 1 nM: 25%; % protection at indicated concentration 10 nM: 51%; % protection at indicated concentration 100 nM: 79%; % protection at indicated concentration 1 μM: 85%
O=C(O)c1cccc(S(=O)(=O)N2CCCC2)c1 [3506-0172, 3-(pyrrolidin-1-ylsulfonyl)benzoic acid]	–	–	18%	19%	52%	–
CCOC(=O)CN1C(=O)c2ccccc2S1(=O)=O [5149-0030, Ethyl-2,3-dihydro-3-oxo-1,2-benzisothiazole-2-acetate-1,1-dioxide]	19%	25%	35%	68%	80%	% protection at indicated concentration 0.1 nM: 19%; % protection at indicated concentration 1 nM: 25%; % protection at indicated concentration 10 nM: 35%; % protection at indicated concentration 100 nM: 68%; % protection at indicated concentration 1 μM: 80%
O=c1oc(-c2ccco2)nc2sc3c(c12)CCCC3 [4789-3852, 2-(furan-2-yl)-5,6,7,8-tetrahydro-4H-benzo[4,5]thieno[2,3-d][1,3]oxazin-4-one]	18%	25%	55%	61%	81%	–
Cc1[nH]c(=O)[nH]c(=O)c1S(=O)(=O)N1CCCCC1C (stereo not drawn) [E214-0380, 6-methyl-5-((2-methylpiperidin-1-yl)sulfonyl)pyrimidine-2,4(1H,3H)-dione]	18%	21%	39%	51%	83%	–
CCOC(=O)C1=C(C)N(CC(=O)NCc2ccc(C)cc2)c2ncnn2C1c1ccccc1 (stereo not drawn) [D529-0049, ethyl 5-methyl-4-(2-((4-methylbenzyl)amino)-2-oxoethyl)-7-phenyl-4,7-dihydro-[1,2,4]triazolo[1,5-a]pyrimidine-6-carboxylate]	–	–	33%	42%	51%	–
CC(C)c1cc(C2CCCN2C(=O)C2CC2)no1 (stereo not drawn) [Z632-2266, cyclopropyl(2-(5-isopropylisoxazol-3-yl)pyrrolidin-1-yl)methanone]	13%	22%	46%	78%	93%	–
CCCC(=O)N1CCN=C1N1CCCCC1 [M059-0335, 1-(2-(piperidin-1-yl)-4,5-dihydro-1H-imidazol-1-yl)butan-1-one]	–	–	–	–	47%	–
CCc1ccccc1S(=O)(=O)Nc1ccc(N2CCN(CC)CC2)cc1C(=O)O [F684-0507, 2-(2-ethylphenylsulfonamido)-5-(4-ethylpiperazin-1-yl)benzoic acid]	–	–	–	–	56%	–
O=C(O)Cn1nnc(-c2ccncc2)n1 [8018-2960, 2-(5-(pyridin-4-yl)-2H-tetrazol-2-yl)acetic acid]	38%	25%	54%	80%	84%	–
CCN1CCN(C2=NCCN2C(=O)C2CCCC2)CC1 [M059-1012, cyclopentyl(2-(4-ethylpiperazin-1-yl)-4,5-dihydro-1H-imidazol-1-yl)methanone]	–	–	–	51%	–	–
